This is an account of results in US20240376084A1, “INHIBITORS OF ALPHA-HEMOLYSIN OF STAPHYLOCOCCUS AUREUS” (Helmholtz-Zentrum Fur Infektionsforschung GmbH, priority 2021, published 2024).

Test [1] addresses hemolysin alpha from Staphylococcus aureus (Staphylococcus aureus, UniProt P09616). The test is described as follows: cell-based.
Test [2] deals with S. aureus Alpha hemolysin (Staphylococcus aureus, UniProt P09616). The test is described as follows: cell-based.

Each structure is given as a SMILES string.

S. aureus Alpha hemolysin, sequence (P09616 27-319 limits assumed): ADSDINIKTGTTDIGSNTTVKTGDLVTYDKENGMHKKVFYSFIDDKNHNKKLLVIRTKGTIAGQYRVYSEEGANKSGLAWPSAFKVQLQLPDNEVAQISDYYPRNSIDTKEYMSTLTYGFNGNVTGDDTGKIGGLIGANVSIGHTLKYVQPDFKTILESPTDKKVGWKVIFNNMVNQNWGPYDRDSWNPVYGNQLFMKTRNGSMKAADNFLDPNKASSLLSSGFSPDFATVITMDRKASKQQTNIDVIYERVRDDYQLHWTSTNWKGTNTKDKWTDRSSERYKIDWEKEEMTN
hemolysin alpha from Staphylococcus aureus, sequence (P09616 27-319 limits assumed): as above

For `Cc1cc(NS(=O)(=O)c2cc3[nH]c(=O)c(=O)[nH]c3cc2F)ccc1-c1ccoc1` [Compound 168, 7-fluoro-N-(4-(furan-3-yl)-3-methylphenyl)-2,3-dioxo-1,2,3,4-tetrahydroquinoxaline-6-sulfonamide], the IC50 (commonly the concentration that inhibits the measured activity by half) in test [1] fell in the range of 0.1 to 1 µM. In addition, the EC50 (commonly the concentration at which the effect is half-maximal) in test [2] (A549-LDH Assay activity) was in the range of 1 to 6 µM.

In the case of `Cc1cc2[nH]c(=O)c(=O)[nH]c2cc1S(=O)(=O)Nc1ccc(-c2cc(F)cc(C(N)=O)c2)c(C(F)(F)F)c1` [Compound 363, 3-fluoro-5-[4-[(7-methyl-2,3-dioxo-1,4-dihydroquinoxalin-6-yl)sulfonylamino]-2-(trifluoromethyl)phenyl]benzamide], the EC50 in test [1] and in test [2] (A549-LDH Assay activity) was 0.03 to 0.1 µM each time.

Regarding `Cc1ccc(-c2ccc(NS(=O)(=O)c3cc4[nH]c(=O)c(=O)[nH]c4cc3C)cc2Cl)cc1` [Compound 38, N-(2-chloro-4′-methyl-[1,1′-biphenyl]-4-yl)-7-methyl-2,3-dioxo-1,2,3,4-tetrahydroquinoxaline-6-sulfonamide], the IC50 in test [1] lay in the range of 0.03 to 0.1 µM. In test [2] (A549-LDH Assay activity), this compound returned an EC50 of 0.1 to 1 µM.

Take `O=c1[nH]c2cc(Cl)c(S(=O)(=O)Nc3ccc(-c4ccsc4)c(Cl)c3)cc2[nH]c1=O` [Compound 32, 7-chloro-N-(3-chloro-4-(thiophen-3-yl)phenyl)-2,3-dioxo-1,2,3,4-tetrahydroquinoxaline-6-sulfonamide]: the IC50 in test [1] was < 0.03 µM. Also, the EC50 in test [2] (A549-LDH Assay activity) lay within 0.1 to 1 µM.

For the compound `COc1cc2[nH]c(=O)c(=O)[nH]c2cc1S(=O)(=O)Nc1ccc(Cl)cc1` [Compound 380, N-(4-chlorophenyl)-7-methoxy-2,3-dioxo-1,4-dihydroquinoxaline-6-sulfonamide], the EC50 in test [1] fell in the range of 1 to 3.5 µM; in test [2] (A549-LDH Assay activity), 0.1 to 1 µM.

As for `Cc1cc2[nH]c(=O)c(=O)[nH]c2cc1S(=O)(=O)Nc1ccc(-c2ccccc2F)c(Cl)c1` [Compound 5, N-(2-chloro-2′-fluoro-[1,1′-biphenyl]-4-yl)-7-methyl-2,3-dioxo-1,2,3,4-tetrahydroquinoxaline-6-sulfonamide], the IC50 in test [1] is < 0.03 µM. Further, the EC50 in test [2] (A549-LDH Assay activity) lay in the range of 0.03 to 0.1 µM.

`CCOc1ccc(-c2ccc(NS(=O)(=O)c3cc4[nH]c(=O)c(=O)[nH]c4cc3C)cc2Cl)cc1` [Compound 319, N-[3-chloro-4-(4-ethoxyphenyl)phenyl]-7-methyl-2,3-dioxo-1,4-dihydroquinoxaline-6-sulfonamide]: the values for the EC50 in test [1] and in test [2] (A549-LDH Assay activity) were 0.03 to 0.1 µM and 0.1 to 1 µM, respectively.

As for `COc1cc2[nH]c(=O)c(=O)[nH]c2cc1S(=O)(=O)Nc1ccc(C(F)(F)F)cc1` [Compound 400, 7-methoxy-2,3-dioxo-N-[4-(trifluoromethyl)phenyl]-1,4-dihydroquinoxaline-6-sulfonamide], the concentration for a half-maximal effect (EC50) was 1 to 3.5 µM in test [1] and 0.1 to 1 µM in test [2] (A549-LDH Assay activity).

For `CCCc1ccc(NS(=O)(=O)c2cc3[nH]c(=O)c(=O)[nH]c3cc2C)cc1` [Compound 49, 7-methyl-2,3-dioxo-N-(4-propylphenyl)-1,2,3,4-tetrahydroquinoxaline-6-sulfonamide], the half-inhibitory concentration (IC50) in test [1] is < 0.03 µM. This compound also returned an EC50 in test [2] (A549-LDH Assay activity) of 0.03 to 0.1 µM.

Regarding `Cc1cccc(-c2ccc(NS(=O)(=O)c3cc4[nH]c(=O)c(=O)[nH]c4cc3C)cc2Cl)c1` [Compound 23, N-(2-chloro-3′-methyl-[1,1′-biphenyl]-4-yl)-7-methyl-2,3-dioxo-1,2,3,4-tetrahydroquinoxaline-6-sulfonamide], the IC50 in test [1] was < 0.03 µM. For the same compound, the EC50 in test [2] (A549-LDH Assay activity) lay in the range of 0.03 to 0.1 µM.

In test [1], `Cc1ccccc1-c1ccc(NS(=O)(=O)c2cc3[nH]c(=O)c(=O)[nH]c3cc2C)cc1C` [Compound 103, N-(2,2′-dimethyl-[1,1′-biphenyl]-4-yl)-7-methyl-2,3-dioxo-1,2,3,4-tetrahydroquinoxaline-6-sulfonamide] came in with an IC50 of 0.1 to 1 µM. In test [2] (A549-LDH Assay activity), this compound yielded an EC50 of 0.1 to 1 µM.

As for `Cc1cc2[nH]c(=O)c(=O)[nH]c2cc1S(=O)(=O)Nc1ccc(-c2ccc(C#N)nc2)c(Cl)c1` [Compound 254, N-[3-chloro-4-(6-cyano-3-pyridyl)phenyl]-7-methyl-2,3-dioxo-1,4-dihydroquinoxaline-6-sulfonamide], the EC50 in test [1] and in test [2] (A549-LDH Assay activity) was 0.1 to 1 µM each time.

As to `O=c1[nH]c2cc(OC3CC3)c(S(=O)(=O)Nc3ccc(OC(F)(F)F)cc3)cc2[nH]c1=O` [Compound 382, 7-(cyclopropoxy)-2,3-dioxo-N-[4-(trifluoromethoxy)phenyl]-1,4-dihydroquinoxaline-6-sulfonamide], the results for the EC50 in test [1] and in test [2] (A549-LDH Assay activity) were 1 to 3.5 µM and 0.1 to 1 µM, respectively.

`Cc1cc2[nH]c(=O)c(=O)[nH]c2cc1S(=O)(=O)Nc1ccc(-c2cccc(C(F)(F)F)c2)c(Cl)c1` [Compound 316, N-[3-chloro-4-[3-(trifluoromethyl)phenyl]phenyl]-7-methyl-2,3-dioxo-1,4-dihydroquinoxaline-6-sulfonamide]: the concentration for a half-maximal effect (EC50) in test [1] lay in the range of 0.03 to 0.1 µM; in test [2] (A549-LDH Assay activity), 1 to 6 µM.

Regarding `Cc1cc2[nH]c(=O)c(=O)[nH]c2cc1S(=O)(=O)Nc1cnc(-c2cncc(Cl)c2)c(Cl)c1` [Compound 279, N-[5-chloro-6-(5-chloro-3-pyridyl)-3-pyridyl]-7-methyl-2,3-dioxo-1,4-dihydroquinoxaline-6-sulfonamide], the EC50 in test [1] and in test [2] (A549-LDH Assay activity) was 0.1 to 1 µM throughout.

Take `COc1ccc(-c2ccc(NS(=O)(=O)c3cc4[nH]c(=O)c(=O)[nH]c4cc3C)cc2Br)cc1F` [Compound 302, N-[3-bromo-4-(3-fluoro-4-methoxy-phenyl)phenyl]-7-methyl-2,3-dioxo-1,4-dihydroquinoxaline-6-sulfonamide]: the EC50 in test [1] and in test [2] (A549-LDH Assay activity) was < 0.03 µM each time.

Consider `COc1cc2[nH]c(=O)c(=O)[nH]c2cc1S(=O)(=O)Nc1ccc(OC(F)F)cc1` [Compound 391, N-[4-(difluoromethoxy)phenyl]-7-methoxy-2,3-dioxo-1,4-dihydroquinoxaline-6-sulfonamide], for which the EC50 in test [1] fell in the range of 1 to 3.5 µM; in test [2] (A549-LDH Assay activity) it was 0.1 to 1 µM.

Take `Cc1cc2[nH]c(=O)c(=O)[nH]c2cc1S(=O)(=O)Nc1ccc(-c2ccc(Cl)c(Cl)c2)c(Cl)c1` [Compound 257, N-[3-chloro-4-(3,4-dichlorophenyl)phenyl]-7-methyl-2,3-dioxo-1,4-dihydroquinoxaline-6-sulfonamide]: the EC50 in test [1] is < 0.03 µM; in test [2] (A549-LDH Assay activity) it was 0.03 to 0.1 µM.

For `Cc1cc(NS(=O)(=O)c2cc3[nH]c(=O)c(=O)[nH]c3cc2C)ccc1Br` [Compound 171, N-(4-bromo-3-methylphenyl)-7-methyl-2,3-dioxo-1,2,3,4-tetrahydroquinoxaline-6-sulfonamide], in test [1], the IC50 fell in the range of 0.1 to 1 µM. In test [2] (A549-LDH Assay activity), this compound yielded an EC50 of 0.03 to 0.1 µM.

In turn, `Cc1cc2[nH]c(=O)c(=O)[nH]c2cc1S(=O)(=O)Nc1ccc(C(F)(F)F)cc1` [Compound 50, 7-methyl-2,3-dioxo-N-(4-(trifluoromethyl)phenyl)-1,2,3,4-tetrahydroquinoxaline-6-sulfonamide] returned an IC50 in test [1] of 0.03 to 0.1 µM. Further, the EC50 in test [2] (A549-LDH Assay activity) was 0.03 to 0.1 µM.

Take `Cc1cc2[nH]c(=O)c(=O)[nH]c2cc1S(=O)(=O)Nc1ccc(-c2cccc(S(C)(=O)=O)c2)c(Cl)c1` [Compound 313, N-[3-chloro-4-(3-methylsulfonylphenyl)phenyl]-7-methyl-2,3-dioxo-1,4-dihydroquinoxaline-6-sulfonamide]: the EC50 in test [1] and in test [2] (A549-LDH Assay activity) was 0.1 to 1 µM throughout.

On to `Cc1cc(NS(=O)(=O)c2cc3[nH]c(=O)c(=O)[nH]c3cc2C)ccc1Br` [drawing 471 (R^2 = CH3)], for which the figures for the EC50 in test [1] and in test [2] (LDH Assay EC50) were 0.267 µM and 0.091 µM, respectively.

With `[2H]C([2H])([2H])c1cc2[nH]c(=O)c(=O)[nH]c2cc1S(=O)(=O)Nc1ccc(OC(F)(F)F)cc1` [Compound 217, 7-(methyl-d3)-2,3-dioxo-N-(4-(trifluoromethoxy)phenyl)-1,2,3,4-tetrahydroquinoxaline-6-sulfonamide], the EC50 in test [1] and in test [2] (A549-LDH Assay activity) was < 0.03 µM throughout.

For the compound `Cc1cc2[nH]c(=O)c(=O)[nH]c2cc1S(=O)(=O)Nc1ccc(-c2ccc(F)c(C#N)c2)c(Cl)c1` [Compound 393, N-[3-chloro-4-(3-cyano-4-fluoro-phenyl)phenyl]-7-methyl-2,3-dioxo-1,4-dihydroquinoxaline-6-sulfonamide], the EC50 in test [1] lay within 0.03 to 0.1 µM; in test [2] (A549-LDH Assay activity) it was 0.1 to 1 µM.

In the case of `Cc1cc(C2CC2)ccc1NS(=O)(=O)c1cc2[nH]c(=O)c(=O)[nH]c2cc1C` [Compound 110, N-(4-cyclopropyl-2-methylphenyl)-7-methyl-2,3-dioxo-1,2,3,4-tetrahydroquinoxaline-6-sulfonamide], the IC50 in test [1] lay within 0.1 to 1 µM. In test [2] (A549-LDH Assay activity), this compound returned an EC50 of 0.03 to 0.1 µM.

As for `Cc1cc2[nH]c(=O)c(=O)[nH]c2cc1S(=O)(=O)Nc1ccc(-c2ccc(F)c(F)c2F)c(Cl)c1` [Compound 307, N-[3-chloro-4-(2,3,4-trifluorophenyl)phenyl]-7-methyl-2,3-dioxo-1,4-dihydroquinoxaline-6-sulfonamide], the EC50 in test [1] and in test [2] (A549-LDH Assay activity) was 0.03 to 0.1 µM each time.

Consider `Cc1cc2[nH]c(=O)c(=O)[nH]c2cc1S(=O)(=O)Nc1ccc(-c2ccc(F)c(Cl)c2F)c(Cl)c1` [Compound 2, N-(2,3′-dichloro-2′,4′-difluoro-[1,1′-biphenyl]-4-yl)-7-methyl-2,3-dioxo-1,2,3,4-tetrahydroquinoxaline-6-sulfonamide], for which the half-maximal inhibitory concentration (IC50) in test [1] is < 0.03 µM. The compound further came in with an EC50 in test [2] (A549-LDH Assay activity) of 0.1 to 1 µM.

`COc1ccc(-c2ccc(NS(=O)(=O)c3cc4[nH]c(=O)c(=O)[nH]c4cc3C)cc2Cl)cc1C#N` [Compound 289, N-[3-chloro-4-(3-cyano-4-methoxy-phenyl)phenyl]-7-methyl-2,3-dioxo-1,4-dihydroquinoxaline-6-sulfonamide]: the results for the EC50 in test [1] and in test [2] (A549-LDH Assay activity) were 0.03 to 0.1 µM and 0.1 to 1 µM, respectively.

For the compound `COc1cc2[nH]c(=O)c(=O)[nH]c2cc1S(=O)(=O)Nc1ccc(Br)cc1` [Compound 383, N-(4-bromophenyl)-7-methoxy-2,3-dioxo-1,4-dihydroquinoxaline-6-sulfonamide], the figures for the concentration for a half-maximal effect (EC50) in test [1] and in test [2] (A549-LDH Assay activity) were 1 to 3.5 µM and 0.1 to 1 µM, respectively.

As to `Cc1cc2[nH]c(=O)c(=O)[nH]c2cc1S(=O)(=O)Nc1ccc(-c2cccc(N(C)C)c2)c(Cl)c1` [Compound 4, N-(2-chloro-3′-(dimethylamino)-[1,1′-biphenyl]-4-yl)-7-methyl-2,3-dioxo-1,2,3,4-tetrahydroquinoxaline-6-sulfonamide], in test [1], the IC50 was < 0.03 µM. Besides, in test [2] (A549-LDH Assay activity), the EC50 was in the range of 0.03 to 0.1 µM.
